Measurements reported in patent publication US20250144067A1, “PERSONALIZED STARVATION THERAPY FOR CANCER” (Faeth Therapeutics, Inc., priority 2021, published 2025).
Counter-ions that a name gives are not always drawn. Like-named read-outs stand apart in the source and are kept apart here.

Experiments:
[1] = tested on: NCI-H292 lung cancer cells; assay: FDA drug screening, complete media vs cholesterol-free media with simvastatin (TABLE 2); assay type: cell-based, human
[2] = tested on: NCI-H292 lung cancer cells; assay: FDA drug screening, complete media vs cholesterol-free media without statin (TABLE 1); assay type: cell-based, human
[3] = NCI-H292 cells, FDA library drug in cholesterol-free media with simvastatin 0.04 μM
[4] = NCI-H292 cells, FDA library drug in complete media
[5] = complete media vs cholesterol-free media + simvastatin (0.04 μM), >0 enhanced anti-cancer activity, about 0 neutral, <0 antagonist
[6] = Complete minus Cholesterol-free, greater than 0 enhanced anti-cancer activity, about 0 neutral, below 0 antagonist
[7] = NCI-H292 cells, FDA drug library screen, cholesterol-free media without statin
[8] = NCI-H292 cells, FDA drug library screen, complete media
[9] = NCI-H292 cells, FDA drug library screen, cholesterol-free media with simvastatin 0.04 μM
[10] = complete media minus cholesterol-free media + simvastatin, >0 enhanced anti-cancer activity, about 0 neutral, <0 antagonist
[11] = NCI-H292 cells, drug in cholesterol-free media with simvastatin 0.04 μM
[12] = NCI-H292 cells, drug in complete media
[13] = NCI-H292 cells, cholesterol-free media without statin
[14] = complete vs cholesterol-free media, greater than 0 enhanced anti-cancer activity, about 0 neutral, below 0 antagonists
[15] = Complete minus Cholesterol-free, […]
[16] = NCI-H292 cells, cholesterol-free media without statin, FDA drug library screen
[17] = NCI-H292 cells, complete media, FDA drug library screen
[18] = complete media vs cholesterol-free media + simvastatin (0.04 μM), […]
[19] = Complete minus Cholesterol-free, >0 enhanced anti-cancer activity, about 0 neutral, <0 antagonist

What does the source list for COc1ccc(-c2cc(=S)ss2)cc1 [Anethole (trithione)]?
Cholesterol-free media + simvastatin (0.04 μM) [1, 3]: 1.972; Complete Media [1, 4]: 1.115; Difference [1, 5]: −0.86; Difference [2, 6]: −0.18; Cholesterol-free [2, 7]: 1.563; Complete [2, 8]: 1.382

What does the source list for CN(C)CCC=C1c2ccccc2COc2ccccc21 [Doxepin (Hydrochloride)]?
Cholesterol-free media + simvastatin (0.04 μM) [1, 9]: 0.8618; Complete Media [1, 8]: 1.158; Difference [1, 10]: 0.30; Difference [2, 6]: −0.11; Cholesterol-free [2, 7]: 1.23; Complete [2, 8]: 1.122

How did the “Cholesterol-free media + simvastatin (0.04 μM)” value [1, 11] turn out when CCCc1nc(C(C)(C)O)c(C(=O)O)n1Cc1ccc(-c2ccccc2-c2nnn[nH]2)cc1 [Olmesartan] was run?
The value was 1.131.

And the “Complete Media” value [1, 12]?
The value was 0.942.

What about the Difference [1, 5] of the same molecule?
Its Difference is −0.19.

And the Cholesterol-free [2, 13]?
The Cholesterol-free was 1.93.

What about the Complete ([2]; NCI-H292 cells, complete media) of the same molecule?
The Complete was 1.465.

What about the Difference [2, 14] of the same molecule?
The Difference was −0.46.

O=C(O)CCC(=O)c1ccc(-c2ccccc2)cc1 [Fenbufen] was tested. Which “Cholesterol-free media + simvastatin (0.04 μM)” value ([1]; NCI-H292 cells, cholesterol-free media with simvastatin 0.04 μM, cell growth value in FDA drug screen) did it give?
Its value is 0.8759.

And the “Complete Media” value ([1]; NCI-H292 cells, complete media, cell growth value in FDA drug screen)?
Its value is 0.8928.

What about the Difference [1, 10] of the same molecule?
Its Difference is 0.02.

And the Difference ([2]; Complete minus Cholesterol-free, greater than 0 enhanced anti-cancer activity, about 0 neutral, below 0 antagonists)?
Its Difference is −0.96.

What about the Cholesterol-free ([2]; NCI-H292 cells in cholesterol-free media without statin) of the same molecule?
The Cholesterol-free was 1.772.

What about the Complete ([2]; NCI-H292 cells in complete media) of the same molecule?
The Complete was 0.811.

Oxytocin (acetate) was tested. Which “Cholesterol-free media + simvastatin (0.04 μM)” value ([1]; NCI-H292 cells, cholesterol-free media with simvastatin 0.04 μM, […]) did it give?
Its value is 0.9906.

And the Difference ([1]; complete media minus cholesterol-free media + simvastatin, […])?
Its Difference is 0.04.

And the Difference [2, 15]?
The Difference was −0.16.

What about the Cholesterol-free [2, 7] of the same molecule?
The Cholesterol-free was 1.734.

And the Complete [2, 8]?
Its Complete is 1.57.

C[N+](C)(C)CCCCCCCCCC[N+](C)(C)C.[Br-].[Br-] [Decamethonium (Bromide)] was tested. Which “Cholesterol-free media + simvastatin (0.04 μM)” value [1] did it give?
The value was 1.129.

And the “Complete Media” value [1]?
The value was 0.9457.

What about the Difference [1] of the same molecule?
Its Difference is −0.18.

And the Cholesterol-free [2]?
Its Cholesterol-free is 1.121.

And the Complete [2]?
The Complete was 0.9062.

And the Difference [2]?
Its Difference is −0.21.

With CC1CCC(C(C)C)C(O)C1 (stereo not shown) [Menthol] as the molecule, how does the “Cholesterol-free media + simvastatin (0.04 μM)” value [1, 11] read?
The value was 1.031.

And the “Complete Media” value [1, 12]?
The value was 0.8642.

What about the Difference [1, 5] of the same molecule?
The Difference was −0.17.

What about the Cholesterol-free [2, 16] of the same molecule?
The Cholesterol-free was 0.9443.

What about the Complete [2, 17] of the same molecule?
Its Complete is 1.129.

What about the Difference ([2]; complete vs cholesterol-free media, >0 enhanced anti-cancer activity, about 0 neutral, <0 antagonist) of the same molecule?
The Difference was 0.19.

How did the “Cholesterol-free media + simvastatin (0.04 μM)” value [1, 3] turn out when CC[N+](C)(CC)CCOC(=O)C(O)(c1ccccc1)c1ccccc1 [Methylbenactyzium Bromide] was run?
Its value is 1.651.

What about the “Complete Media” value [1, 4] of the same molecule?
Its value is 1.081.

And the Difference [1, 18]?
The Difference was −0.57.

What about the Difference [2, 15] of the same molecule?
Its Difference is 0.02.

And the Cholesterol-free [2, 16]?
The Cholesterol-free was 0.9201.

What about the Complete [2, 17] of the same molecule?
Its Complete is 0.945.

How did the “Cholesterol-free media + simvastatin (0.04 μM)” value [1, 11] turn out when COc1ccc2[nH]c([S+]([O-])Cc3ncc(C)c(OC)c3C)nc2c1 (stereo not shown) [Omeprazole] was run?
Its value is 0.8585.

What about the “Complete Media” value [1, 12] of the same molecule?
Its value is 0.6883.

What about the Difference [1, 5] of the same molecule?
Its Difference is −0.17.

What about the Difference [2, 6] of the same molecule?
Its Difference is −0.12.

What about the Cholesterol-free [2, 7] of the same molecule?
The Cholesterol-free was 0.995.

And the Complete [2, 8]?
The Complete was 0.8798.

How did the “Cholesterol-free media + simvastatin (0.04 μM)” value [1, 11] turn out when N[C@@H]1CONC1=O [D-Cycloserine] was run?
Its value is 1.193.

What about the “Complete Media” value [1, 12] of the same molecule?
Its value is 1.005.

And the Difference [1, 5]?
The Difference was −0.19.

What about the Cholesterol-free [2, 13] of the same molecule?
The Cholesterol-free was 1.516.

What about the Difference [2, 14] of the same molecule?
Its Difference is −0.37.

How did the “Cholesterol-free media + simvastatin (0.04 μM)” value [1, 3] turn out when CCNC(=O)CCC/C=C\C[C@@H]1[C@@H](/C=C/[C@@H](O)CCc2ccccc2)[C@H](O)C[C@@H]1O [Bimatoprost] was run?
Its value is 1.43.

What about the “Complete Media” value [1, 4] of the same molecule?
The value was 0.9569.

What about the Difference [1, 5] of the same molecule?
Its Difference is −0.47.

And the Cholesterol-free [2, 13]?
Its Cholesterol-free is 1.545.

And the Complete ([2]; NCI-H292 cells, complete media)?
Its Complete is 1.142.

And the Difference [2, 14]?
Its Difference is −0.40.

Which “Cholesterol-free media + simvastatin (0.04 μM)” value [1, 9] does the source give for CCOc1ccccc1C(N)=O [2-Ethoxybenzamide] here?
The value was 1.119.

And the “Complete Media” value [1, 8]?
Its value is 0.9754.

And the Difference [1, 5]?
The Difference was −0.14.

And the Difference [2, 19]?
Its Difference is −0.07.

And the Cholesterol-free [2, 16]?
Its Cholesterol-free is 1.024.

What about the Complete [2, 17] of the same molecule?
The Complete was 0.9559.

With O=C1NCCN1CCN1CCC(c2cn(-c3ccc(F)cc3)c3ccc(Cl)cc23)CC1 [Sertindole] as the molecule, how does the “Cholesterol-free media + simvastatin (0.04 μM)” value [1, 9] read?
The value was 0.7983.

What about the “Complete Media” value [1, 8] of the same molecule?
Its value is 1.128.

And the Difference [1, 10]?
Its Difference is 0.33.

What about the Difference [2, 19] of the same molecule?
Its Difference is −0.04.

What about the Cholesterol-free [2, 16] of the same molecule?
The Cholesterol-free was 0.5468.

And the Complete [2, 17]?
Its Complete is 0.5035.

Which “Cholesterol-free media + simvastatin (0.04 μM)” value [1, 9] does the source give for Cc1ncc(OC[C@@]2(c3cccc(F)c3)C[C@H]2C(=O)Nc2ccc(F)cn2)c(C)n1 [Lemborexant] here?
Its value is 1.185.

And the “Complete Media” value [1, 8]?
The value was 1.038.

What about the Difference [1, 18] of the same molecule?
Its Difference is −0.15.

And the Cholesterol-free [2, 13]?
Its Cholesterol-free is 1.55.

And the Complete ([2]; NCI-H292 cells, complete media)?
The Complete was 1.207.

And the Difference ([2]; complete vs cholesterol-free media, […])?
Its Difference is −0.34.
